Earlier results in US20050245613A1, “Use of gaba-b receptor positive modulators in gastro-intestinal disorders” (priority 2002, published 2005).

Columns and labels:
[1] = tested on: vagal afferent and efferent fibers
[2] = tested on: ferrets
[3] = tested on: dogs
[4] = tested on: GERD patients
[5] = tested on: healthy subjects
[6] = tested on: GERD patients; settings: long-term recording of esophageal pH

NCC(CC(=O)O)c1ccc(Cl)cc1 (stereo not drawn) [Baclofen]
sensitivity of vagal afferent and efferent fibers [1]: reduce the sensitivity of vagal afferent and efferent fibers | frequency of TLESR [2]: reduces the frequency of TLESR | frequency of TLESR [3]: reduces the frequency of TLESR | frequency of TLESR [4]: reduces the frequency of TLESR | frequency of TLESR [5]: reduces the frequency of TLESR | esophageal acid exposure [6]: significant reduction in esophageal acid exposure
